Assays:
Conditions in all cases: Compound concentration 1.0 uM
[1] = molecular target: T1, Protein kinase C iota type (Homo sapiens) (UniProt P41743)
T1 sequence (whole entry): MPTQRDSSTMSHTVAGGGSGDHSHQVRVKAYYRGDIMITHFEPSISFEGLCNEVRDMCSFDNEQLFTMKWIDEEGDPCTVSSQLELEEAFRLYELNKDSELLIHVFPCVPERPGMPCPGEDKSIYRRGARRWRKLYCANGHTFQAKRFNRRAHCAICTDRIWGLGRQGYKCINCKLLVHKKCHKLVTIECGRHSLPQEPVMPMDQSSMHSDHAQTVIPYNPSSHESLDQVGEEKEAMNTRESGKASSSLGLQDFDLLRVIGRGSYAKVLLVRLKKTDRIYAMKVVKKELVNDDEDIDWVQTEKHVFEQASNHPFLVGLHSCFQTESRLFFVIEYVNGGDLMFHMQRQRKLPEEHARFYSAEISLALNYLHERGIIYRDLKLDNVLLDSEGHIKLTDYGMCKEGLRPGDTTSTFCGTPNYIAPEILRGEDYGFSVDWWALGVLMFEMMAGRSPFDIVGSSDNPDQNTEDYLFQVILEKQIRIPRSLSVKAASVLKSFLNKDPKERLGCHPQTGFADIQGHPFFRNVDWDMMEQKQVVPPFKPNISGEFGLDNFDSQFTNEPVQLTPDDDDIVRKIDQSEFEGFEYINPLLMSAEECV

[2] = molecular target: Calcium/calmodulin-dependent protein kinase type 1 (Homo sapiens) (UniProt Q14012)
[3] = molecular target: T2, Serine/threonine-protein kinase TAO3 (Homo sapiens) (UniProt Q9H2K8)
T2 sequence (whole entry): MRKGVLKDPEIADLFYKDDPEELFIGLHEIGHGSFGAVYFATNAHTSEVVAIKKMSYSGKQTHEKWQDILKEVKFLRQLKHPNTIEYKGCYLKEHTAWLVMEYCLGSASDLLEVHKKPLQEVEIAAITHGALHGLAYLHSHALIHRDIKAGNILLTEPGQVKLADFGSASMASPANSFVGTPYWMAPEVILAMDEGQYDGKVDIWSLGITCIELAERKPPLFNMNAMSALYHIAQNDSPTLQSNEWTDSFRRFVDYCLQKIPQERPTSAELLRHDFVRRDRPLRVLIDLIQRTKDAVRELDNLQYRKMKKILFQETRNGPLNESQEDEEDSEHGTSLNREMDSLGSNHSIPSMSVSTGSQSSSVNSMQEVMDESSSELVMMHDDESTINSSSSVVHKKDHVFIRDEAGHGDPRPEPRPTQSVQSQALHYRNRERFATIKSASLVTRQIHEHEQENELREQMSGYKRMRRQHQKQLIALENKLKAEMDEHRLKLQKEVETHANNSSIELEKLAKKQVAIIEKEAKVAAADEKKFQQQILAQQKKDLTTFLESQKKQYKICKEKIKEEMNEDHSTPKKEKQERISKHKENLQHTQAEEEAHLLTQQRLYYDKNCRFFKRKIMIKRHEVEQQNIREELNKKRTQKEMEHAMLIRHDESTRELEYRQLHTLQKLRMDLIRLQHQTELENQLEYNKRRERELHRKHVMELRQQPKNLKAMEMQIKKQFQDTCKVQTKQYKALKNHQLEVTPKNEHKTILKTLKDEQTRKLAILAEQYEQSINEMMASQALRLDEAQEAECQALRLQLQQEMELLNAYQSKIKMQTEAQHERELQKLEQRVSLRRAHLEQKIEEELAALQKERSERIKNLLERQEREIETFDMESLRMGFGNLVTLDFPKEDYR

[4] = molecular target: T3, Serine/threonine-protein kinase ICK (Homo sapiens) (UniProt Q9UPZ9)
T3 sequence (whole entry): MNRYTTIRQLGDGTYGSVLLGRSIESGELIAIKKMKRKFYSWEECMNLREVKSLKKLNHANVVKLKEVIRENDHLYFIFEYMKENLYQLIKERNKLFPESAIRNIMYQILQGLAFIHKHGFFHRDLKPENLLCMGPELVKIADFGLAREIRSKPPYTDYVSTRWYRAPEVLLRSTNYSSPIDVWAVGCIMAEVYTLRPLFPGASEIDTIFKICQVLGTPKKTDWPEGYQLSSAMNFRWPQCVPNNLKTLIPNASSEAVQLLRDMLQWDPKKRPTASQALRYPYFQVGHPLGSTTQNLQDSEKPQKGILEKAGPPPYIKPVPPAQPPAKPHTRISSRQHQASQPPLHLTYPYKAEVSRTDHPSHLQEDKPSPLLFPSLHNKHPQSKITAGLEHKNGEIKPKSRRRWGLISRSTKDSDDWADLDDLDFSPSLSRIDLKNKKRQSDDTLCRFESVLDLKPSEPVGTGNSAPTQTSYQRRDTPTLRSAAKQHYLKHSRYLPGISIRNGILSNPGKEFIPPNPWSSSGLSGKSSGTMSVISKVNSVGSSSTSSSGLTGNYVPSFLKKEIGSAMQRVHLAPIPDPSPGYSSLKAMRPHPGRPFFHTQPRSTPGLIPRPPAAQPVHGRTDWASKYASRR

[5] = molecular target: T4, Mitogen-activated protein kinase kinase kinase 7 (Homo sapiens) (UniProt O43318)
T4 sequence (whole entry): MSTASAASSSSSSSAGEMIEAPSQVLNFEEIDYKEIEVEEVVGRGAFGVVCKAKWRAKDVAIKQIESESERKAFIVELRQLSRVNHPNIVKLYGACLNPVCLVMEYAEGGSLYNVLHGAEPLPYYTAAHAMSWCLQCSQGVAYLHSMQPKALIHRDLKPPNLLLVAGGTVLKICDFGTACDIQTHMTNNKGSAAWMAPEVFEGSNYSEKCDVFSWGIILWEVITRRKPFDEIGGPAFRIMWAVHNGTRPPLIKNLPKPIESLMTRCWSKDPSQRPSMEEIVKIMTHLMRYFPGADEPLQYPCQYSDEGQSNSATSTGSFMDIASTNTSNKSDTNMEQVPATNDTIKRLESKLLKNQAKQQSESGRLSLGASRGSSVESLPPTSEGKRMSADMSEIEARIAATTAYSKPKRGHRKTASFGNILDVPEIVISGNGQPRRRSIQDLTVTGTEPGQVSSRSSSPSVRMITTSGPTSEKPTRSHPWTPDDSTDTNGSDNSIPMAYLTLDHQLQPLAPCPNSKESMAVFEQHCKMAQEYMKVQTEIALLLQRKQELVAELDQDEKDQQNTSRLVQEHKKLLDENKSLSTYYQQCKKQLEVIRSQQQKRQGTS

Measured: % residual kinase activity

Sequence of Calcium/calmodulin-dependent protein kinase type 1 (Homo sapiens) (Q14012 whole entry, looked up): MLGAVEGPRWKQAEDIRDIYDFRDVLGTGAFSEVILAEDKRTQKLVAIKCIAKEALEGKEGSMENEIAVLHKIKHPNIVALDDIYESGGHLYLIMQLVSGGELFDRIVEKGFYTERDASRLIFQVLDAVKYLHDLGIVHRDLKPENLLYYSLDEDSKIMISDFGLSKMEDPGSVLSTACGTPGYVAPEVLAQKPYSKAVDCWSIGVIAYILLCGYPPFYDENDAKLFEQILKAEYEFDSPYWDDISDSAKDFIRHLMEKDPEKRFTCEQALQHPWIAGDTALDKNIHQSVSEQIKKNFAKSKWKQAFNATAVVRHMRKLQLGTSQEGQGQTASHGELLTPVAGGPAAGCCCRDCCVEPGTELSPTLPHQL

CN1CCN(c2cnc3c(C4CCN(C(=O)c5ccc(OC(F)(F)F)cc5N)CC4)ncnc3c2)CC1 [BAY-885]
inactive: [1] 102% | [2] 109% | [3] 110% | [4] 93% | [5] 107%

— ChEMBL document CHEMBL4507268 (2021)
